Experimental findings from US8658794B2, “8-methyl-1-phenyl-imidazol[1,5-a]pyrazine compounds as Lck inhibitors and uses thereof” (Merck Sharp & Dohme B.V., priority 2010, dated 2014) are described below.

The assay deals with T1, N-terminal His6-tagged recombinant full-length human Lck (Homo sapiens, UniProt P06239).
T1 construct: N-terminal His6-tagged recombinant full-length human Lck; His6 (N); purchased Millipore
Description: Lck IMAP assay. Particulars: ATP 6 μM (KM,ATP), enzyme pre-incubated with compounds for 60 minutes, values given as bins. Format: biochemical. From the text:
Inhibition of kinase activity can be measured using the Immobilized Metal Assay for Phosphochemicals (IMAP) assay. IMAP is a homogeneous fluorescence polarization (FP) assay based on affinity capture of phosphorylated peptide substrates. IMAP uses fluorescein-labeled peptide substrates that, upon phosphorylation by a protein kinase, bind to so-called IMAP nanoparticles, which are derivatized with trivalent metal complexes. Binding causes a change in the rate of the molecular motion of the peptide, and results in an increase in the FP value observed for the fluorescein label attached to the substrate peptide (Gaudet et al. A homogeneous fluorescence polarization assay adaptable for a range of protein serine/threonine and tyrosine kinases. J. Biomol. Screen (2003) 8, 164-175).
Enzyme used was N-terminal His6-tagged recombinant full-length human Lck from Millipore. Phosphorylation substrate was a fluorescein-labeled peptide (5FAM-KVEKIGEGTYGVV—NH2) derived from p34cdc2 from Molecular Devices. Enzymes, substrate and ATP were diluted in Kinase Reaction buffer (10 mM Tris-HCl, 10 mM MgCl2, 0.01% Tween-20, 0.05% NaN3 pH 7.2, 1 mM DTT (dithiotreitol). The final volume at the kinase reaction step of the assay in the 384-well plate was 20 μl. Final amount of enzyme in the reaction was 0.1 U/ml. Enzyme was pre-incubated with compounds diluted in 1% DMSO (dimethylsulfoxide) for 60 minutes at room temperature in the dark. Subsequently, peptide substrate to a final concentration of 100 nM, and ATP to a final concentration of 6 μM were added and the mix was incubated for 120 minutes at room temperature in the dark. IMAP progressive binding buffer (75% 1× buffer A, 25% 1× buffer B with 1:600 Progressive Binding Reagent; Molecular Devices) was added, followed by an incubation step of 60 minutes at room temperature in the dark. Finally, the FP signal was read on an Envision Multilabel reader (Perkin Elmer).
All biochemical assays were run at KM,ATP of the enzyme using non-saturated conditions, meaning that during the incubation time it was assured that the signal increase was linear with time. For all biochemical assays a reference standard was used on each plate.
Ten point serial dilutions using a √10 dilution factor were used for dose response testing of compounds. Starting concentration was 10^-6M for Lck IMAP assays. Dose-response curves were run as two experiments on duplicate plates (N=1; n=2). All data was normalized to percentage effect based on maximum (Max) and minimum (Min) control values. On every 384 assay plate 16 wells were used as minimum wells (wells with ATP, 0% effect) and 16 wells were used as maximum wells (wells without ATP, 100% effect). 16 wells were used for measuring the background signal, obtained from a kinase reaction containing all constituents except the labeled peptide substrate. Percentage effect was plotted against log dilution concentration of compound to obtain sigmoid dose response curves. pIC50 values were calculated using ActivityBase.

T1 sequence (P06239 whole entry): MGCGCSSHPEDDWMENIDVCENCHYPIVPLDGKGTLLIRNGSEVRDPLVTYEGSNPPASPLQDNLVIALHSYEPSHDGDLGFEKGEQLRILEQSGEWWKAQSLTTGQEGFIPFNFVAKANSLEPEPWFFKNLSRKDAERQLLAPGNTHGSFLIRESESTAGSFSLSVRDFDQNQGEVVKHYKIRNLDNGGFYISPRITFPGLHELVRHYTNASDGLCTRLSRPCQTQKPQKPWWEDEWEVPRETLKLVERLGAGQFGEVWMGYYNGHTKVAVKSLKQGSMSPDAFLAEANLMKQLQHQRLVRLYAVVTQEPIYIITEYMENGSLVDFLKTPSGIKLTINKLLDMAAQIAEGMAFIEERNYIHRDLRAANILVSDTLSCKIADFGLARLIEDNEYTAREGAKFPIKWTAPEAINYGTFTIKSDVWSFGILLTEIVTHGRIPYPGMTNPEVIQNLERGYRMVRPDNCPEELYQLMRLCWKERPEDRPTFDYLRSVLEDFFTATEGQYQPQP

Usually IC50 stands for the point on the concentration scale where inhibition reaches its midpoint. Take `COc1cc(-c2nc(N3CCN(C(C)=O)CC3)n3ccnc(C)c23)ccc1NC(=O)c1cc2c(OC)cccc2n1C` [Example 33g, N-(4-(3-(4-acetylpiperazin-1-yl)-8-methylimidazo[1,5-a]pyrazin-1-yl)-2-methoxyphenyl)-4-methoxy-1-methyl-1H-indole-2-carboxamide]: the IC50 is 10 to 100 nM.

Take `COc1cc(-c2nc(N3CCN(C4CCOCC4)CC3)n3ccnc(C)c23)ccc1NC(=O)c1cc2c(OC)cccc2n1C` [Example 34, 4-Methoxy-N-(2-methoxy-4-(8-methyl-3-(4-(tetrahydro-2H-pyran-4-yl)piperazin-1-yl)imidazo[1,5-a]pyrazin-1-yl)phenyl)-1-methyl-1H-indole-2-carboxamide]: the IC50 was at most 10 nM.

As for `COc1cc(-c2nc([C@@H]3CCN(C4CCOCC4)C3)n3ccnc(C)c23)ccc1NC(=O)c1cc2c(OC)cccc2n1C` [Example 35, (R)-4-methoxy-N-(2-methoxy-4-(8-methyl-3-(1-(tetrahydro-2H-pyran-4-yl)pyrrolidin-3-yl)imidazo[1,5-a]pyrazin-1-yl)phenyl)-1-methyl-1H-indole-2-carboxamide], the IC50 is 10 to 100 nM.

With `COc1cc(-c2nc([C@H]3CCN(C4CCOCC4)C3)n3ccnc(C)c23)ccc1NC(=O)c1cc2c(OC)cccc2n1C` [Example 36, (S)-4-Methoxy-N-(2-methoxy-4-(8-methyl-3-(1-(tetrahydro-2H-pyran-4-yl)pyrrolidin-3-yl)imidazo[1,5-a]pyrazin-1-yl)phenyl)-1-methyl-1H-indole-2-carboxamide], the IC50 was 10 to 100 nM.

Consider `COc1cc(-c2nc(N3CCn4c(nnc4C(F)(F)F)C3)n3ccnc(C)c23)ccc1NC(=O)c1cc2c(OC)cccc2n1C` [Example 37, 4-Methoxy-N-(2-methoxy-4-(8-methyl-3-(3-(trifluoromethyl)-5,6-dihydro-[1,2,4]triazolo[4,3-a]pyrazin-7(8H)-yl)imidazo[1,5-a]pyrazin-1-yl)phenyl)-1-methyl-1H-indole-2-carboxamide], for which the concentration for half-maximal inhibition (IC50) was 10 to 100 nM.

Take `COc1cc(-c2nc(C3CCN(C)C(=O)C3)n3ccnc(C)c23)ccc1NC(=O)c1cc2c(OC)cccc2n1C` (stereo not shown) [Example 38, 4-Methoxy-N-(2-methoxy-4-(8-methyl-3-(1-methyl-2-oxopiperidin-4-yl)imidazo[1,5-a]pyrazin-1-yl)phenyl)-1-methyl-1H-indole-2-carboxamide]: the IC50 was at most 10 nM.

Regarding `COc1cc(-c2nc([C@H]3CC[C@H](N)CC3)n3ccnc(C)c23)ccc1NC(=O)c1cc2c(OC)cccc2n1C` [Example 39, N-(4-(3-((trans)-4-aminocyclohexyl)-8-methylimidazo[1,5-a]pyrazin-1-yl)-2-methoxyphenyl)-4-methoxy-1-methyl-1H-indole-2-carboxamide], the IC50 is at most 10 nM.

For `COc1cc(-c2nc([C@H]3CC[C@H](NCC(F)F)CC3)n3ccnc(C)c23)ccc1NC(=O)c1cc2c(OC)cccc2n1C` [Example 40, N-(4-(3-((trans)-4-(2,2-Difluoroethylamino)cyclohexyl)-8-methylimidazo[1,5-a]pyrazin-1-yl)-2-methoxyphenyl)-4-methoxy-1-methyl-1H-indole-2-carboxamide], the IC50 is at most 10 nM.

For the molecule `COc1cc(-c2nc([C@H]3CC[C@H](N4CC(F)(F)C4)CC3)n3ccnc(C)c23)ccc1N(C)C(=O)OC(C)C` [Example 41, Isopropyl 4-(3-((trans)-4-(3,3-difluoroazetidin-1-yl)cyclohexyl)-8-methylimidazo[1,5-a]pyrazin-1-yl)-2-methoxyphenyl(methyl)carbamate], the IC50 is 100 to 1000 nM.

On to `COc1ccc2[nH]c(C(=O)Nc3ccc(-c4nc(C5CCOCC5)n5ccnc(C)c45)cc3OC)cc2n1` [Example 42, 5-methoxy-N-(2-methoxy-4-(8-methyl-3-(tetrahydro-2H-pyran-4-yl)imidazo[1,5-a]pyrazin-1-yl)phenyl)-1H-pyrrolo[3,2-b]pyridine-2-carboxamide], for which the IC50 is 10 to 100 nM.

On to `COc1cc(-c2nc(C3CCN(C)CC3)n3ccnc(C)c23)ccc1NC(=O)c1cc2ccccc2n1C` [Example 43, N-(2-methoxy-4-(8-methyl-3-(1-methylpiperidin-4-yl)imidazo[1,5-a]pyrazin-1-yl)phenyl)-1-methyl-1H-indole-2-carboxamide], for which the half-maximal inhibitory concentration (IC50) is at most 10 nM.

In the case of `COc1cc(-c2nc(C3CCOCC3)n3ccnc(C)c23)ccc1NC(=O)O[C@@H](C)CCO` [Example 44, (S)-4-hydroxybutan-2-yl 2-methoxy-4-(8-methyl-3-(tetrahydro-2H-pyran-4-yl)imidazo[1,5-a]pyrazin-1-yl)phenylcarbamate], the IC50 is 10 to 100 nM.

In the case of `COc1cc(-c2nc(C3CCN(C)CC3)n3ccnc(C)c23)ccc1NC(=O)c1cc2c(F)cccc2n1C` [Example 45, 4-fluoro-N-(2-methoxy-4-(8-methyl-3-(1-methylpiperidin-4-yl)imidazo[1,5-a]pyrazin-1-yl)phenyl)-1-methyl-1H-indole-2-carboxamide], the IC50 was 10 to 100 nM.

For `COc1cc(-c2nc(C3CCOCC3)n3ccnc(C)c23)c(F)cc1NC(=O)c1cc2c(OC)cccc2n1C` [Example 46, N-(5-fluoro-2-methoxy-4-(8-methyl-3-(tetrahydro-2H-pyran-4-yl)imidazo[1,5-a]pyrazin-1-yl)phenyl)-4-methoxy-1-methyl-1H-indole-2-carboxamide], the IC50 is at most 10 nM.

Take `COc1cc(-c2nc(C3CCOCC3)n3ccnc(C)c23)c(F)cc1NC(=O)OC(C)CCCO` (stereo not shown) [Example 47, 5-Hydroxypentan-2-yl 5-fluoro-2-methoxy-4-(8-methyl-3-(tetrahydro-2h-pyran-4-yl)imidazo[1,5-a]pyrazin-1-yl)phenylcarbamate]: the IC50 was 100 to 1000 nM.

On to `CC[C@H](C)OC(=O)Nc1ccc(-c2nc([C@H]3CC[C@H](N4CCN(C)CC4)CC3)n3ccnc(C)c23)cc1OC` [Example 48, (S)-sec-Butyl 2-methoxy-4-(8-methyl-3-((trans)-4-(4-methylpiperazin-1-yl)cyclohexyl)imidazo[1,5-a]pyrazin-1-yl)phenylcarbamate], for which the IC50 is at most 10 nM.

As for `COc1cc(-c2nc(C3CCN(C4CCN(C(C)=O)CC4)CC3)n3ccnc(C)c23)ccc1NC(=O)c1cc2c(OC)cccc2n1C` [Example 49, N-(4-(3-(1′-acetyl-1,4′-bipiperidin-4-yl)-8-methylimidazo[1,5-a]pyrazin-1-yl)-2-methoxyphenyl)-4-methoxy-1-methyl-1H-indole-2-carboxamide], the IC50 was at most 10 nM.

With `CCC[C@H](C)OC(=O)Nc1ccc(-c2nc([C@H]3CCN(C(=O)COC)C3)n3ccnc(C)c23)cc1OC` [Example 50, (S)-pentan-2-yl 2-methoxy-4-(3-((S)-1-(2-methoxyacetyl)pyrrolidin-3-yl)-8-methylimidazo[1,5-a]pyrazin-1-yl)phenylcarbamate], the half-inhibitory concentration (IC50) was at most 10 nM.

Consider `COc1cc(-c2nc([C@H]3CC[C@H](OC(=O)NC4CCCC4)CC3)n3ccnc(C)c23)ccc1NC(=O)c1cc2c(OC)cccc2n1C` [Example 51, (trans)-4-(1-(3-Methoxy-4-(4-methoxy-1-methyl-1H-indole-2-carboxamido)phenyl)-8-methylimidazo[1,5-a]pyrazin-3-yl)cyclohexyl cyclopentylcarbamate], for which the IC50 was 10 to 100 nM.

With `COc1cc(-c2nc([C@@H]3CCN(CC(=O)N(C)C)C3)n3ccnc(C)c23)ccc1NC(=O)c1cc2c(OC)cccc2n1C` [Example 52, (R)—N-(4-(3-(1-(2-(dimethylamino)-2-oxoethyl)pyrrolidin-3-yl)-8-methylimidazo[1,5-a]pyrazin-1-yl)-2-methoxyphenyl)-4-methoxy-1-methyl-1H-indole-2-carboxamide], the IC50 is 10 to 100 nM.

Take `COc1cc(-c2nc([C@@H]3CCN(C(=O)CO)C3)n3ccnc(C)c23)ccc1NC(=O)c1cc2c(OC)cccc2n1C` [Example 53, (R)—N-(4-(3-(1-(2-hydroxyacetyl)pyrrolidin-3-yl)-8-methylimidazo[1,5-a]pyrazin-1-yl)-2-methoxyphenyl)-4-methoxy-1-methyl-1H-indole-2-carboxamide]: the IC50 was at most 10 nM.

Turning to `COc1cc(-c2nc([C@H]3CC[C@H](N4CCNCC4)CC3)n3ccnc(C)c23)ccc1NC(=O)c1cc2c(OC)cccc2n1C` [Example 54, 4-Methoxy-N-(2-methoxy-4-(8-methyl-3-((trans)-4-(piperazin-1-yl)cyclohexyl)imidazo[1,5-a]pyrazin-1-yl)phenyl)-1-methyl-1H-indole-2-carboxamide], the IC50 is at most 10 nM.
